Data set [1] concerns the target T1, human serum albumin (HSA) (Homo sapiens, UniProt P02768).
T1 construct: purchased Sigma-Aldrich/Merck A8763
The experiment in a line: Tryptophan (Trp214) fluorescence quenching assay with HSA. The note with it: 1 μM HSA. It is filed as binding. The procedure:
HSA contains only one tryptophan residue (Trp214), which is located in a hydrophobic pocket in subdomain IIA of the protein. When a compound binds to HSA, it can affect the local environment of Trp214, leading to a decrease in its fluorescence intensity.
Fluorescence measurements were carried out on a Fluoromax (Horiba Jobin Yvon, Longjumeau, France) spectrofluorometer using a 1 cm × 1 cm quartz cuvette. Samples contained 1 μM HSA and the complex concentration was varied between 0 and 18 μM. The measurements were carried out as titration. The excitation wavelength was 295 for the Trp214 quenching measurements, and the determined quenching constant for HSA–complex species (1:1) was obtained using the computer program HypSpec. Calculations always were based on data obtained from at least two independent measurements. Self-absorbance and inner filter effect had to be considered, and corrections were made as was described in our former works. ,

Data set [2] concerns HeLa cells. The experiment in a line: MTT cytotoxicity assay, HeLa. It is filed as cell-based, human. Conditions: 72 h incubation. The procedure: Its cytotoxicity was determined in the human HeLa cervical cancer cell line, the drug-sensitive Colo205 and its resistant counterpart, the ABCB1 expressing Colo320 colon adenocarcinoma cancer cell lines, using the colorimetric 3-(4,5-dimethylthiazol-2-yl)-2,5-diphenyltetrazolium bromide (MTT) test. To investigate the selectivity toward cancer cells, the noncancerous fibroblast CCD-19Lu cell line was included.
The tested compound was dissolved in DMSO to prepare a 5 mM stock solution, which was diluted in complete culture medium, to study the effect of compounds on cell growth of human colonic adenocarcinoma cell lines. Doxorubicin was used as the positive control. The cells were treated with a trypsin-versene (EDTA) solution. Cells were adjusted to a density of 1 × 10^4 cells in 100 μL of the appropriate culture medium and were added to each well, with the exception of the medium control wells. Except for the semiadherent Colo205 and Colo320 cell lines, the other adherent cell lines were seeded 24 h prior to the assay. Then, stock solutions were diluted in the appropriate culture medium, and 2-fold serial dilutions of compounds were prepared in 100 μL of the medium, horizontally. […] Cell growth was determined by measuring the optical density (OD) at 540/630 nm with a Multiscan EX ELISA reader (Thermo Labsystems, Cheshire, WA). […]
(Tetrazolium assays rely on reduction of a dye to a coloured formazan, in cell work by metabolically active cells.)

Data set [3] concerns the target T2, cathepsin B (exopeptidase activity) (Homo sapiens, UniProt P07858).
T2 construct: made in house; host or cells: E. coli
The experiment in a line: Relative inhibition of cathepsin B exopeptidase activity. The data set is classed as biochemical. Conditions: 50 μM; substrate Abz-Gly-Ile-Val-Arg-Ala-Lys-(Dnp)-OH; pH 5.0. From the text:
(§1) Relative inhibition is expressed as a percentage of the decrease in reaction velocity in the presence of an inhibitor, in comparison to the reaction velocity in the absence of an inhibitor. For that purpose, the specific fluorogenic substrates Z-Arg-Arg-7-amido-4-methylcoumarin (Z-Arg-Arg-AMC) and 2-aminobenzoyl (Abz)-Gly-Ile-Val-Arg-Ala-Lys-(Dnp)-OH were used for cathepsin B endopeptidase and exopeptidase activities, respectively, and Z-Phe-Arg-AMC was used for cathepsin L and V activities.
(§2) Human recombinant cathepsin B was expressed in E. coli, recombinant cathepsin V was expressed in Pichia pastoris, and human recombinant cathepsin L was expressed in E. coli, as reported. − For the determination of cathepsin B endopeptidase and exopeptidase activities, 100 mM phosphate buffer (pH 6.0) and 60 mM acetate buffer (pH 5.0) were used, respectively, and for the determination of cathepsin V and L activities, 100 mM acetate buffer (pH 5.5) was used. All buffers contained 0.1% PEG 8000 (Sigma-Aldrich, St. Louis, MO), 5 mM cysteine, and 1.5 mM EDTA. Prior to the assay, the enzymes were activated in the assay buffer for 5 min at 37 °C.
(§3) To determine the effect of inhibitors on enzyme activity, the following substrates were used: Z-Arg-Arg-AMC (final concentration 5 μM, Z-RR-AMC; Bachem, Bubendorf, Switzerland) for cathepsin B endopeptidase activity, Abz-Gly-Ile-Val-Arg-Ala-Lys-(Dnp)-OH (final concentration 1 μM, Abz-GIVRAK-(Dnp)-OH; Bachem) for cathepsin B exopeptidase activity, and Z-Phe-Arg-AMC (final concentration 2 μM, Z-FR-AMC; Bachem) for cathepsin V and L activity. The substrate ([…]) at a final concentration and inhibitor ([…]) at a concentration of 50 μM were added to the wells of a black microplate. The reaction was then initiated by adding 90 μL of activated enzyme (final concentrations: 5 nM cathepsin B for its endopeptidase activity, 0.5 nM cathepsin B for its exopeptidase activity, 2.5 ng/mL for cathepsin V, and 0.02 nM for cathepsin L) in the assay buffer. The formation of fluorescent degradation products during the reaction was continuously monitored at 460 ± 10 nm with excitation at 380 ± 20 nm for Z-Arg-Arg-AMC and Z-Phe-Arg-AMC and at 420 ± 10 nm with excitation at 320 ± 20 nm for Abz-Gly-Ile-Val-Arg-Ala-Lys(Dnp)-OH at 37 °C on a Tecan Infinite M1000 (Mannedorf, Switzerland) spectrofluorometer. All assay mixtures contained 5% (v/v) DMSO. To prevent false-positive inhibition due to the formation of compound aggregates, 0.01% Triton X-100 was used. All measurements were performed in triplicate and repeated twice. The relative inhibition was calculated using the following equation: relative inhibition (%) = 100(1 – v i/v o), where v i and v o designate the reaction velocities in the presence and absence of inhibitor, respectively.

The conditions of data set [4]: pH 7.4, 25.0 °C.
Description: The concentration of the compound was determined by UV–vis spectrophotometry. For calibration, stock solutions of the compound were used with known concentrations dissolved in 100% DMSO, 75% DMSO, and 50% (v/v) DMSO/buffered aqueous solutions.
Data set [5] has as its target T3, cathepsin V (Homo sapiens, UniProt O60911).
T3 construct: made in house; host or cells: Pichia pastoris
Briefly: Relative inhibition of cathepsin V. It is filed as biochemical. The note with it: 50 μM; substrate Z-Phe-Arg-AMC; pH 5.5.
Description: as §1, §2, §3

T1 sequence (P02768 25-609): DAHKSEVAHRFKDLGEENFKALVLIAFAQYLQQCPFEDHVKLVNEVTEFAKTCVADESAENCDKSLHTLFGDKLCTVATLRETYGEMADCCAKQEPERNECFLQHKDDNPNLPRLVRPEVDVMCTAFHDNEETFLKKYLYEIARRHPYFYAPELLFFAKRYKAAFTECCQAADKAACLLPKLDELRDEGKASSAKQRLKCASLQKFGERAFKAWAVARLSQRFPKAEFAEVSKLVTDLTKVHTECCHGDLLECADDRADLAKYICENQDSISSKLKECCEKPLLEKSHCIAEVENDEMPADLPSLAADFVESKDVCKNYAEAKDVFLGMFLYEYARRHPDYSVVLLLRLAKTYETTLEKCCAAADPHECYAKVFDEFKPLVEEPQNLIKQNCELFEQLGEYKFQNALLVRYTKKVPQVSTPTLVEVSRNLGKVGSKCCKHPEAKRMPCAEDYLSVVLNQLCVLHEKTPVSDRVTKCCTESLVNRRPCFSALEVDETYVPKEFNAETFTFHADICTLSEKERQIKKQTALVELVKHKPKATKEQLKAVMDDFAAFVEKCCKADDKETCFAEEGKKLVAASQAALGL
T3 sequence (O60911 114-334): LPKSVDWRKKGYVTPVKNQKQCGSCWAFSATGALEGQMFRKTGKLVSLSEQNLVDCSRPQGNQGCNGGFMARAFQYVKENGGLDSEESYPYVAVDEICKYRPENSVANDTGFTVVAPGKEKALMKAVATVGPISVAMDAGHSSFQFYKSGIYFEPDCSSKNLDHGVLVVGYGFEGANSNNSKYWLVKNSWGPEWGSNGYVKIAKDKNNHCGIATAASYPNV

Take `N#Cc1ccccc1.[C-]#[O+].[C-]#[O+].[C-]#[O+].[O-]n1ccccc1=S.[Re+]` [complex 4, fac-[Re(CO)3(pth)(benzonitrile)]]: the “log KQ quenching constant” value in data set [1] (0–18 μM complex, pH 7.4 (PBS), 25 °C) was determined as 6.3 ± 0.1. Besides, in data set [1] (∼4 equivalents of complex, λEX 295 nm, pH 7.4), the “degree of HSA fluorescence quenching” value is reported as about 85%. Moreover, in data set [2], the IC50 is 7.96 ± 0.98 µM. In data set [3], the “relative inhibition cathepsin B exopeptidase” value stood at 37.5 ± 2.1%. In data set [4], the “aqueous solubility S7.4” value turned out to be 350 ± 10 µM. Besides, the “relative inhibition cathepsin V” value in data set [5] stood at 9.1 ± 1.0%.

For orientation: IC50 means the concentration needed to halve the response being measured.
